Measured values from publication PMC8321398, “The discovery of a novel series of compounds with single-dose efficacy against juvenile and adult Schistosoma species” (PLoS Neglected Tropical Diseases, 2021).
pEC50: −log10 of the molar value. Where two headings read alike, the source gives them in different places.

How the values were obtained:
[1] = system: S. japonicum adult; test: In vitro adult S. japonicum worm assay; format: cell-based; settings: for pEC50: Schistosoma japonicum, S. japonicum, 120 h incubation, read-out: Sj adult EC50; for Potency ratio Sj/Sm: adult EC50 S. japonicum / S. mansoni
Excerpt: (§1) The Puerto Rican strain of S. mansoni was maintained in Biomphalaria glabrata and CD1 mice. Oncomelania hupensis (hupensis) infected with S. japonicum (Chinese strain) and Bulinus truncatus (truncatus) infected with Egyptian strain S. haematobium were obtained from BEI Resources, NIAID, NIH. Infection of mice for worm recovery was as previously described except that, whereas cercariae of S. mansoni and S. haematobium were obtained by shedding from infected snails under lights, cercariae of S. japonicum were obtained by gently crushing the snails. Furthermore, adult S. haematobium were recovered after 12 weeks following mouse infection.
(§2) In vitro efficacy was carried out as previously described. In brief, worms were recovered from infected mice by portal perfusion 3 weeks (for juveniles) or 6 weeks (for adults) post-infection using warm perfusion medium (Dulbecco’s Modified Eagle’s Medium [DMEM], 2mM L-glutamine, 100 Units/ml penicillin, 100μg/ml streptomycin, 20mM Hepes, 10 Units/ml heparin [Sigma, UK]). Worms were washed free of red blood cells using the perfusion medium, and finally suspended in complete medium (cDMEM: DMEM, 2mM L-glutamine, 100 Units/ml penicillin, 100μg/ml streptomycin, 10% FCS). The juvenile assays were carried out in 96-well plates, each well containing 6–8 worms in 200 μL cDMEM. The adult worm assay was in 24-well plates, each well containing 3 worm pairs in 1mL cDMEM. Both the juvenile and adult worm cultures were kept at 37° C, in an atmosphere of 5% CO2. Drug effects were determined on day 5 following drug treatment by assessing the viability of individual worms as described in [14].

[2] = In vivo efficacy, mouse model of adult (42-day old) S. mansoni infection; settings: female, CD1, mouse, plasma, po, mouse, Adult infection, read-out: Plasma conc @24 h (efficacy experiment)
Experimental: (§3) Prior to in vivo efficacy experiments, a single animal was given a dose of drug (using the same formulation) that was twice as large as that planned for use in the efficacy experiments and was observed periodically for adverse clinical signs for 24h by trained veterinarians. Adverse clinical signs checked include postural defect, vocalization, oculo-nasal discharge, hypersalivation, change in activity, abnormal gait, respiration and pulse, piloerection, loss of pupillary reflex, eyelid reflex, chromodacryorrhea, reaction to handling, tremor, convulsions, prostration, diarrhoea, cachexia, emaciation. […] In vivo efficacy was assessed in female CD1 mice using methods based on those previously described. Mice were infected subcutaneously with 150 cercariae. Test compounds were suspended in 7% Tween-80 / 3% Ethanol / double distilled water and drug dispersal was facilitated by vortexing and using a sonicating water bath (Formulation “Aqueous”). Alternatively, drugs were first dissolved in DMSO, then diluted with corn oil to give a 1:19 DMSO:corn oil solution/suspension of test compound (Formulation “Corn oil”). Dosing was by oral gavage. Mice in the negative control groups were given the drug suspension vehicle only. Positive controls for treatment of adult, day 42 old, infections were treated with PZQ and those for juvenile, day 21 old, infections with artemether, which unlike PZQ is effective against the juvenile worm infections in mice. During and following treatment, mice were closely observed for any ill effects by staff experienced in animal handling. This involved individuals who were blinded to the treatment groups. Effects they were trained to look for included hunching, immobility, piloerection, subdued behaviour, diarrhoea and loss of body condition. None were seen. Worms were recovered by portal perfusion with citrate saline 8–14 days post treatment and counted. Differences between groups relative to the non-drug treated controls were assessed for statistical significance by Student’s unpaired t-test using GraphPad Prism Software. P values are presented as follows:- ns–P > 0.05 (not significant), * P ≤ 0.05, ** P ≤ 0.01, *** P ≤ 0.001, **** P ≤ 0.0001.
(§4) For pharmacokinetic analysis during the in vivo efficacy experiments individual animals were only sampled once. Samples were taken from one animal in each experimental group at each of 1, 4, 8 h and samples from two animals in each group were taken at 24 h.

[3] = system: S. mansoni adult worms; test: as above
Experimental: as §3, §4

[4] = In vivo efficacy, mouse model of juvenile (21-day old) S. mansoni infection; settings: female, CD1, plasma, mouse, Juvenile infection, read-out: Plasma conc @24 h (efficacy experiment)
Experimental: as §3, §4

[5] = system: S. mansoni juvenile worms; test: as above; settings: for Worms remaining: Juvenile infection; for efficacy in vivo against juvenile worm infection: 21-day old infections, single oral dose, Aqueous formulation (Fig 8); for in vivo EC50 against juvenile worms: mouse model, single oral dose (Fig 9C); for clearing juvenile worm infections in vivo: 12.5 mg/kg oral single dose (Fig 9D); for worm reduction: juvenile worms
Experimental: as §3, §4

[6] = system: S. haematobium adult; test: In vitro adult S. haematobium worm assay; format: cell-based; settings: for pEC50: Schistosoma haematobium, S. haematobium, 120 h incubation, read-out: Sh adult EC50; for Potency ratio Sh/Sm: adult EC50 S. haematobium / S. mansoni
Excerpt: as §1, §2

[7] = system: Adult S. mansoni; test: In vitro adult S. mansoni worm assay; format: cell-based; settings: Schistosoma mansoni, 120 h incubation
Excerpt: as §1, §2

[8] = Metabolic stability in mouse hepatocytes; format: in vitro ADME; settings: hepatocytes (suspension); for remaining at 1.5 h, 1 µM: pH 7.4, 90 min incubation, read-out: Mouse hepatocyte % remaining at 90 min; for remaining at 0.5 h, 1 µM: pH 7.4, 30 min incubation, read-out: Mouse hepatocyte % remaining at 30 min
Experimental: 100 μM compound stock solution was prepared from 5 μL of 4 mM stock in DMSO + 195 μL MeCN. Working solution (2 μM compound) was prepared using 10 μL of 100 μM stock + 490 μL buffer pH 7.4 (KHB supplemented with CaCl2, NaHCO3, HEPES, fructose, glycine; pH 7.4).
Working solution (25 μL, 2 μM) was added in duplicate to wells in a 0.5 mL per well, 96 well plate which was preincubated to reach 37°C. Hepatocyte suspension (25 μL) was added to each plate, and the plate incubated (37°C, 95% relative humidity with 5% CO2 supply) under gentle mixing (Thermomixer @300 rpm). After designated time periods, ice-cold MeCN (250 μL) was added with a suitable standard. For T = 0 min, ice-cold MeCN (250 μL) with suitable standard was added to the working solution (2 μM) and hepatocyte suspension (25 μL) added. The plates for each time point were shaken, sonicated for 5 mins and kept at 4°C until the final plate was processed. The plates were centrifuged at 4,000 rpm for 20 min, supernatant (110 μL) was mixed with water (110 μL) and the samples analysed using LC-MS/MS.

[9] = system: HepG2 cells; test: Cytotoxicity, HepG2 cells with MTT; format: cell-based, human; settings: Table 2; hepG2 cell line, 72 h incubation
Experimental: Activity against mammalian cells was determined using either of two standard assays. The first of these used MRC-5 cells with Alamar blue staining as previously described. The second used HepG2 cells monitored using 3-(4,5-dimethylthiazol-2-yl)-2,5-diphenyltetrazolium bromide (MTT) as previously described.

[10] = oral 12.5 mg/kg, formulation corn oil
[11] = mouse, oral 12.5 mg/kg, formulation corn oil
[12] = Table 2, in vitro, read-out: Adult S. mansoni EC50
[13] = Table 3, S. mansoni, read-out: Sm adult EC50
[14] = mouse, oral 50 mg/kg, formulation Aq
[15] = oral 6.25x2 mg/kg (12 h apart), formulation corn oil

pEC50 [1]	concentration at 24 h [4, 10]	pEC50 [6]	pEC50 [7, 12]	pEC50 [7, 13]	remaining at 1.5 h, 1 µM [8]	concentration at 24 h ([4]; oral 50 mg/kg, formulation Aq)	remaining at 0.5 h, 1 µM [8]	in vivo EC50 against juvenile worms [5]	SMILES	Worms remaining [5, 11]	Cytotox TC50 [9]	efficacy in vivo against juvenile worm infection ([5]; mouse)	Worms remaining [5, 14]	Potency ratio Sj/Sm [1]	clearing juvenile worm infections in vivo ([5]; mouse)	Potency ratio Sh/Sm [6]	also measured
6.41	1320 ng/mL	7.64	7.57	7.56	90%				Fc1ccc(-c2cn3c(-c4ccc5[nH]ncc5c4F)c(C(F)(F)F)nc3cn2)cc1C(F)(F)F [LSHTM-3642, 3-(4-fluoro-1H-indazol-5-yl)-6-(4-fluoro-3-(trifluoromethyl)phenyl)-2-(trifluoromethyl)imidazo[1,2-a]pyrazine]	5%	16,600 nM						concentration at 24 h ([2]; 12.5 mg/kg, oral 12.5 mg/kg, formulation Aq): 939 ng/mL; in vivo EC50 against adult worms ([3]; mouse model, single oral dose (Fig 9A)): < 6.25 mg/kg; Worms remaining ([3]; mouse, Adult infection, oral 12.5 mg/kg, formulation Aq): 1%; concentration at 24 h ([4]; oral 25 mg/kg, formulation Aq): 1700 ng/mL; Worms remaining ([5]; mouse, oral 25 mg/kg, formulation Aq): 1.8%
			7.50		80%	505 ng/mL	89%		CC(C)c1nc2cnc(-c3ccc(F)c(C(F)(F)F)c3)cn2c1-c1ccc2[nH]ncc2c1F [LSHTM-3604]		12,000 nM	effective	12%				concentration at 24 h ([4]; oral 25 mg/kg, formulation corn oil): 223 ng/mL; Worms remaining ([5]; mouse, oral 25 mg/kg, formulation corn oil): 13%
6.89	984 ng/mL	8.19	8.01	8.01	94%			below 6.25 mg/kg	Fc1ccc(-c2cn3c(-c4ccc5[nH]ncc5c4F)c(C(F)(F)F)nc3cn2)cc1C(F)(F)C(F)(F)F [LSHTM-3645]	0%	11,700 nM			13.3	extremely effective	0.7	concentration at 24 h ([2]; 6.25 mg/kg, oral 6.25 mg/kg, formulation corn oil): 1010 ng/mL; Worms remaining ([3]; mouse, Adult infection, oral 6.25 mg/kg, formulation corn oil): 1%; efficacy against adult worm infections ([3]; mouse, single oral dose (Fig 9B)): highly effective; concentration at 24 h ([4]; oral 6.25 mg/kg, formulation corn oil): 708 ng/mL; Worms remaining ([5]; mouse, oral 6.25 mg/kg, formulation corn oil): 1.8%; worm reduction ([5]; mouse, single oral dose 6.25 mg/kg): 98%
7.33		8.43	8.27	8.27	75%				CC(C)c1cc(-c2cn3c(-c4ccc5[nH]ncc5c4F)c(C4CC4)nc3cn2)ccc1F [LSHTM-3686]		15,800 nM			8.7		0.7	concentration at 24 h [2, 15]: 241 ng/mL; Worms remaining ([3]; mouse, Adult infection, oral 6.25x2 mg/kg (12 h apart), formulation corn oil): 2.4%; concentration at 24 h [4, 15]: 37.2 ng/mL; Worms remaining ([5]; mouse, oral 6.25x2 mg/kg (12 h apart), formulation corn oil): 25%; worm burden reduction ([5]; mouse, juvenile infection, 6.25 mg/kg given twice 12 h apart): 75%
7.13		7.75	7.34	7.34	44%	208 ng/mL	65%		CC(C)c1nc2cnc(-c3ccc(F)c(C(F)(F)F)c3)cn2c1-c1c(F)cc(O)cc1F [LSHTM-3520]		7,130 nM	effective	62%	1.6		0.4	concentration at 24 h ([2]; 200 mg/kg, oral 200 mg/kg, formulation Aq): 2000 ng/mL; reducing the S. mansoni worm count ([3]; mice infected for 42 days (adult worms), 200 mg/kg single oral dose): highly effective; Worms remaining ([3]; mouse, Adult infection, oral 200 mg/kg, formulation Aq): 1%; Plasma conc @24 h (efficacy experiment) ([3]; mouse, Adult infection, oral 200 mg/kg, formulation Aq, 200 mg/kg): 1,907 ng/mL; concentration at 24 h ([4]; oral 200 mg/kg, formulation Aq): 1980 ng/mL; Worms remaining ([5]; mouse, oral 200 mg/kg, formulation Aq): 16%; half-life at 1 µM ([8]; pH 7.4, calculated from % remaining): 1.25 h
7.02	879 ng/mL	8.03	7.82	7.82	88%			below 6.25 mg/kg	Fc1c(-c2c(C(F)(F)F)nc3cnc(-c4cccc(C(F)(F)C(F)(F)F)c4)cn23)ccc2[nH]ncc12 [LSHTM-3608]	0%	10,900 nM			6.2	extremely effective	0.6	worm reduction ([5]; mouse, single oral dose 12.5 mg/kg): 100%
